Test results reported in ChEMBL document CHEMBL1128052, “Further structure-activity-relationship studies on A/C/D-ring analogs of complement inhibitor K-76” (Bioorg Med Chem Lett, 1995).

Tests used:
Homo sapiens = organism: Homo sapiens; test: Inhibitory concentration required to inhibit human complement induced hemolysis by 50%; assay type: functional, organism-based
[1] = Intrinsic Lytic Activity required to cause 50% hemolysis in the absence of complement; Not bioassayed; assay type: functional, Ovis aries
[2] = Intrinsic Lytic Activity required to cause 50% hemolysis in the absence of complement; assay type: functional, Ovis aries

COc1ccc(C(=O)O)c2c1C[C@@](C)(C1CC=C(C)CC1)O2 (stereo partly specified)
IC50 (Homo sapiens): 380 µM | EC50 [1]: Not bioassayed

COc1ccc(C(=O)O)c2c1C[C@](C)(C1CC[C@](C)(O)[C@H](O)C1)O2 (stereo partly specified)
IC50 (Homo sapiens): 1600 µM | EC50 [1]: Not bioassayed

COc1cc(C(=O)O)cc2c1C[C@@](C)(C1CC=C(C)CC1)O2 (stereo partly specified)
IC50 (Homo sapiens): > 1000 µM | EC50 [2]: 660 µM

CC1=CCC([C@]2(C)Cc3c(Oc4ccccc4)cc(C=O)cc3O2)CC1 (stereo partly specified)
IC50 (Homo sapiens): > 862 µM | EC50 [2]: > 862 µM

CC1=CCC([C@]2(C)Cc3c(O)cc(C=O)cc3O2)CC1 (stereo partly specified)
IC50 (Homo sapiens): 515 µM | EC50 [2]: < 280 µM

C[C@@H]1CCC2C(C)(C)[C@H](O)[C@H](O)C[C@]2(C)[C@@]12Cc1c(O)cc(C(=O)O)c(C=O)c1O2 (stereo partly specified)
IC50 (Homo sapiens): 680 µM | EC50 [2]: > 680 µM

CC1=CCC([C@]2(C)Cc3c(Oc4ccccc4)cc(C(=O)O)cc3O2)CC1 (stereo partly specified)
IC50 (Homo sapiens): > 824 µM | EC50 [2]: < 200 µM

CC1=CCC([C@]2(C)Cc3c(O)ccc(C(=O)O)c3O2)CC1 (stereo partly specified)
IC50 (Homo sapiens): 2400 µM | EC50 [1]: Not bioassayed

CC1=CCC([C@]2(C)Cc3c(O)cc(C(=O)O)cc3O2)CC1 (stereo partly specified)
IC50 (Homo sapiens): 730 µM | EC50 [2]: > 1040 µM

CC1=CCC([C@@]2(C)Cc3c(O)ccc(C(=O)O)c3O2)CC1 (stereo partly specified)
IC50 (Homo sapiens): 2100 µM | EC50 [1]: Not bioassayed

COc1cc(C=O)cc2c1C[C@@](C)(C1CC=C(C)CC1)O2 (stereo partly specified)
IC50 (Homo sapiens): > 1050 µM | EC50 [2]: > 1050 µM

COc1ccc(C(=O)O)c2c1C[C@](C)(C1CC=C(C)CC1)O2 (stereo partly specified)
IC50 (Homo sapiens): 680 µM | EC50 [1]: Not bioassayed

COc1cc(C(=O)O)cc2c1CC(C)(C1CC[C@](C)(O)[C@H](O)C1)O2 (stereo partly specified)
IC50 (Homo sapiens): > 892 µM | EC50 [2]: > 892 µM
